The numbers were not newly measured in patent EP1587517B1, “ANTI-PROTOZOAL COMPOSITIONS COMPRISING DICLAZURIL” (JANSSEN PHARMACEUTICA N.V., priority 2003, dated 2004), which cites them from elsewhere.

As a reminder, the solubility is how much of the substance goes into solution per volume.

Values after ≈ are worked out from the molar mass of the structure shown. Where two headings read alike, the source gives them in different places.

As to `N#CC(c1ccc(Cl)cc1)c1c(Cl)cc(-n2ncc(=O)[nH]c2=O)cc1Cl` (stereo not shown) [diclazuril], the solubility was 32.6 g/L (≈ 80 mM) (N,N-dimethylformamide), 48 g/L (≈ 118 mM) (dimethyl sulphoxide) and 8.2 g/L (≈ 20.1 mM) (tetrahydrofuran). Also, the “saturation concentrations in water” value (water) is “below 1 µg/L”.
